These are literature values, as cited in article PMC4226840, “An open-label study to determine the maximum tolerated dose of the multitargeted tyrosine kinase inhibitor CEP-11981 in patients with advanced cancer” (Investigational New Drugs, 2014).

In general, IC50 refers to the concentration needed to halve the response being measured.

The subject of series [1] is VEGFR-2. The following applies: HUVEC; cited from earlier work.
In series [2] the test system is treatment refractory metastatic colorectal cancer. The arrangement: method as in PMID 23177514. The following applies: phase III, monotherapy, versus 5.0 months, P = 0.0052; cited from earlier work.

Consider `Cc1ccc(Nc2nccc(N(C)c3ccc4c(C)n(C)nc4c3)n2)cc1S(N)(=O)=O` [pazopanib], for which the IC50 in series [1] was […].
Regarding `CNC(=O)c1cc(Oc2ccc(NC(=O)Nc3ccc(Cl)c(C(F)(F)F)c3)c(F)c2)ccn1` [regorafenib], in series [2], the Overall survival is 6.4 months.
